# Assays:
# MM.1S cells = test: Cell cycle distribution by flow cytometry; type: cell-based, human; conditions: 5 to 10 µM for 48 h
# Description: (§1) MM cells were synchronized to G1/S boundary by a double-thymidine block. Briefly, cells were treated with 2 mM thymidine (Sigma-Aldrich) for 16 h, released into fresh medium for 9 h and subjected again to thymidine for another 16 h and then exposed to 6-OAP for indicated time points. Cells were harvested, fixed with 70% cold ethanol, incubated with RNase, and stained with propidium iodide (PI) (Sigma-Aldrich). Cell cycle distribution was analyzed by flow cytometry and CellQuest software (Becton Dickson).
# (§2) Figure 2 6-OAP induces mitotic arrest in MM cells. (A) U266 cells were treated with 6-OAP at 7.5 µM for 0, 24, 48 h and imaged by Leica DMI 400B microscope. (B) U266 cells were treated with 6-OAP at indicated concentrations for 48 h. Cell cycle distribution was determined by flow cytometry. (C) MM.1S cells were treated with 5 µM 6-OAP for 48 h. Cell cycle distribution was determined by flow cytometry. (D) U266 cells were treated with 6-OAP at 5 to 7.5 µM for 24 h (left panel) or at 7.5 µM for 12 to 24 h (right panel). For immunofluorescence analysis of microtubules, cells was stained with an anti-α-tubulin antibody to visualize microtubules (green) and DAPI to counter stained DNA (blue) and observed by confocal microscopy. (E) Indicated cells were treated with 6-OAP at indicated concentration for 24 h, lysed, and Western blotting was performed using antibodies indicated. […]
# U266 cells = test: Cell cycle distribution by flow cytometry; type: cell-based, human; conditions: 5 to 10 µM for 48 h
# Description: as §1, §2
structure (smiles),measurement,setting,value
"CC=C(C)C(=O)OC1C2C(CC(C)C3C=CC(=O)C31C)OC(=O)C2C (centres unmarked) [6-OAP, 6-O-angeloylplenolin]",cells in G2/M phase,MM.1S cells,accumulation
same,cells in G2/M phase,U266 cells,accumulation
